Laboratory results taken from patent US9326513B2, “Fungicidal compositions” (Syngenta Participations AG, priority 2011, dated 2016).

How the values were obtained:
Assay type in all cases: in vivo
Details in all cases: foliar, compared to untreated control leaf disks, read-out: disease control
[1] = tested on: Puccinia recondita f. sp. tritici; assay: Puccinia recondita f. sp. tritici / wheat / leaf disc preventative (brown rust)
Text: Puccinia recondita f. sp. tritici/Wheat/Leaf Disc Preventative (Brown Rust) Wheat leaf segments cv. Kanzler were placed on agar in multiwell plates (24-well format) and sprayed with the formulated test compound diluted in water. The leaf disks were inoculated with a spore suspension of the fungus 1 day after application.

[2] = tested on: Blumeria graminis f. sp. tritici (Erysiphe graminis f. sp. tritici); assay: Blumeria graminis f. sp. tritici / wheat / leaf disc preventative (powdery mildew on wheat)
Procedure: Blumeria graminis f. sp. tritici (Erysiphe graminis f. sp. tritici)/Wheat/Leaf Disc Preventative (Powdery Mildew on Wheat)
Wheat leaf segments cv. Kanzler were placed on agar in a multiwell plate (24-well format) and sprayed with the formulated test compound diluted in water. The leaf disks were inoculated by shaking powdery mildew infected plants above the test plates 1 day after application. The inoculated leaf disks were incubated at 20° C. and 60% rh under a light regime of 24 h darkness followed by 12 h light/12 h darkness in a climate chamber and the activity of a compound was assessed as percent disease control compared to untreated when an appropriate level of disease damage appears on untreated check leaf segments (6-8 days after application).
The following compounds gave at 200 ppm give at least 50% disease control in this test when compared to untreated control leaf disks under the same conditions, which show extensive disease development: […]

[3] = tested on: Puccinia recondita f. sp. tritici; assay: Puccinia recondita f. sp. tritici / wheat / leaf disc curative (brown rust)
Procedure: Puccinia recondita f. sp. tritici/Wheat/Leaf Disc Curative (Brown Rust) Wheat leaf segments cv. Kanzler are placed on agar in multiwell plates (24-well format). The leaf segments are inoculated with a spore suspension of the fungus. Plates were stored in darkness at 19° C. and 75% rh. The formulated test compound diluted in water was applied 1 day after inoculation.

Measured: pest or weed control at 200 ppm

CCN(C)/C=N/c1cc(Br)c(OCc2ccc(Cl)c(Cl)c2)nc1C [Q.064]
≥ 50%: all assays above

CCOC(=O)COc1nc(C)c(/N=C/N(C)CC)cc1C [Q.065]
≥ 50%: all assays above

CCN(C)/C=N/c1cc(Br)c(O[C@@H]2C[C@@H]3ON=C(C)[C@@H]3C2)nc1C [Q.068]
≥ 50%: all assays above

CCN(C)/C=N/c1cc(Br)c(OC2CCC3(CC2)NC(=O)NC3=O)nc1C (stereo not drawn) [Q.072]
≥ 50%: all assays above

CCN(C)/C=N/c1cc(Br)c(OCc2cc(-c3ccccc3)no2)nc1C [Q.073]
≥ 50%: all assays above

CCN(C)/C=N/c1cc(Br)c(OC(C)(C)c2cc(-c3ccccc3)no2)nc1C [Q.077]
≥ 50%: all assays above

C#CCOc1nc(C)c(/N=C/N(C)CC)cc1Br [Q.078]
≥ 50%: all assays above

C#CC(C)Oc1nc(C)c(/N=C/N(C)CC)cc1Br (stereo not drawn) [Q.080]
≥ 50%: all assays above

CCN(C)/C=N/c1cc(Br)c(OC2CCC(C(C)(C)C)CC2)nc1C (stereo not drawn) [Q.081]
≥ 50%: all assays above

CCN(C)/C=N/c1cc(Br)c(OC2CCCCC2C)nc1C (stereo not drawn) [Q.084]
≥ 50%: all assays above

CCOc1nc(C)c(/N=C/N(C)CC)cc1Br [Q.085]
≥ 50%: all assays above

CCN(C)/C=N/c1cc(Br)c(OC2C(C)CCCC2C)nc1C (stereo not drawn) [Q.094]
≥ 50%: all assays above

CCN(C)/C=N/c1cc(Br)c(OCC2CC=CC2)nc1C [Q.098]
≥ 50%: all assays above

CCN(C)/C=N/c1cc(Br)c(OCc2snc(-c3ccccc3)c2Cl)nc1C [Q.109]
≥ 50%: all assays above

CCN(C)/C=N/c1cc(Br)c(OC(C)c2ccc(C)cc2)nc1C (stereo not drawn) [Q.112]
≥ 50%: all assays above

CCN(C)/C=N/c1cc(Br)c(OCCCC=C(C)C)nc1C [Q.118]
≥ 50%: all assays above

CCN(C)/C=N/c1cc(Br)c(OCc2cc(-c3ccc(F)cc3)ns2)nc1C [Q.123]
≥ 50%: all assays above

CCN(C)/C=N/c1cc(Br)c(OC2CCCc3ccc(Br)cc32)nc1C (stereo not drawn) [Q.126]
≥ 50%: all assays above

CCN(C)/C=N/c1cc(Br)c(OC2CCc3ccc(Br)cc3C2)nc1C (stereo not drawn) [Q.127]
≥ 50%: all assays above

CCN(C)/C=N/c1cc(Br)c(OCc2ccc(C)nc2)nc1C [Q.130]
≥ 50%: all assays above

C/C=C/CCCCOc1nc(C)c(/N=C/N(C)CC)cc1Br [Q.132]
≥ 50%: all assays above

CCN(C)/C=N/c1cc(Br)c(OCC2CC(C)=C(C)C2)nc1C [Q.134]
≥ 50%: all assays above

C=CCC(CC=C)Oc1nc(C)c(/N=C/N(C)CC)cc1Br [Q.140]
≥ 50%: all assays above

C=CCC(C)Oc1nc(C)c(/N=C/N(C)CC)cc1Br (stereo not drawn) [Q.145]
≥ 50%: all assays above

CCN(C)/C=N/c1cc(Br)c(OC(C)CCc2ccccc2)nc1C (stereo not drawn) [Q.147]
≥ 50%: all assays above

CCN(C)/C=N/c1cc(Br)c(OC2CCCC(C)C2)nc1C (stereo not drawn) [Q.149]
≥ 50%: all assays above

CCN(C)/C=N/c1cc(Br)c(OCc2cc(C(F)(F)F)cc(C(F)(F)F)c2)nc1C [Q.152]
≥ 50%: all assays above

CCN(C)/C=N/c1cc(Br)c(OCc2snc(C(C)C)c2C#N)nc1C [Q.156]
≥ 50%: all assays above

C=CCN1CCC(Oc2nc(C)c(/N=C/N(C)CC)cc2Br)CC1 [Q.165]
≥ 50%: all assays above

CCN(C)/C=N/c1cc(Br)c(OC2CCCCCC2)nc1C [Q.171]
≥ 50%: all assays above

CCN(C)/C=N/c1cc(Br)c(OC2C=CCCC2)nc1C (stereo not drawn) [Q.172]
≥ 50%: all assays above

CCN(C)/C=N/c1cc(Br)c(OCc2cccc(N(C)C)c2)nc1C [Q.177]
≥ 50%: all assays above

CCN(C)/C=N/c1cc(I)c(O[C@H]2CC[C@H](C(C)C)CC2)nc1C [Q.179]
≥ 50%: all assays above

CCN(C)/C=N/c1ccc(OC(C)c2cc(F)cc(F)c2)nc1C (stereo not drawn) [Q.181]
≥ 50%: all assays above

CCN(C)/C=N/c1cc(C)c(O[C@H]2CC[C@H](C(C)C)CC2)nc1C [Q.185]
≥ 50%: all assays above

Cc1nc(OC(C)c2cc(F)cc(F)c2)c(Br)cc1/N=C/N(C)C(C)C (stereo not drawn) [Q.188]
≥ 50%: all assays above

C=CCN(C)/C=N/c1cc(Br)c(OC(C)c2cc(F)cc(F)c2)nc1C (stereo not drawn) [Q.192]
≥ 50%: all assays above

CCN(C)/C=N/c1cc(Br)c(OC(C)c2cc(Cl)cc(Cl)c2)nc1C (stereo not drawn) [Q.205]
≥ 50%: all assays above

CCN(C)/C=N/c1cc(Br)c(OC2CCC(O)CC2)nc1C (stereo not drawn) [Q.213]
≥ 50%: all assays above

CC#Cc1cc(/N=C/N(C)CC)c(C)nc1OC(C)c1cc(F)cc(F)c1 (stereo not drawn) [Q.230]
≥ 50%: all assays above

CCN(C)/C=N/c1cc(Br)c(OC(C)c2ccc3c(c2)CCC3)nc1C (stereo not drawn) [Q.239]
≥ 50%: all assays above
